Marks after values point to notes of the source that are not given here.
Columns and labels:
Type in all cases: in vivo
Botrytis cinerea = assay: Test A: preventive spray on tomato seedlings, Botrytis cinerea (gray mold), visual disease rating
From the text: (§1) General protocol for preparing test suspensions for Tests A-E: the test compounds were first dissolved in acetone in an amount equal to 3% of the final volume and then suspended at the desired concentration (in ppm) in acetone and purified water (50/50 mix by volume) containing 250 ppm of the surfactant Trem® 014 (polyhydric alcohol esters). The resulting test suspensions were then used in Tests A-E. Compounds were sprayed with either a 40 ppm or 10 ppm (*) test suspension to the point of run-off on the test plants which is the equivalent of a rate of 160 g ai/ha or 40 g ai/ha, respectively.
The test suspension was sprayed to the point of run-off on tomato seedlings. The following day the seedlings were inoculated with a spore suspension of Botrytis cinerea (the causal agent of gray mold on many crops) and incubated in a saturated atmosphere at 20° C. for 48 h, and moved to a growth chamber at 27° C. for 2 days, after which time visual disease ratings were made.
(§2) Results for Tests A-E are given in Table A. In the Table, a rating of 100 indicates 100% disease control and a rating of 0 indicates no disease control (relative to the controls). A dash (-) indicates no test results.

[1] = test system: Stagonospora nodorum (also known as Septoria nodorum); assay: Test B: preventive spray on wheat seedlings, Stagonospora nodorum (wheat glume blotch), visual disease rating
From the text: as §1
The test suspension was sprayed to the point of run-off on wheat seedlings. The following day the seedlings were inoculated with a spore suspension of Stagonospora nodorum (also known as Septoria nodorum; the causal agent of wheat glume blotch) and incubated in a saturated atmosphere at 20° C. for 48 h, and then moved to a growth chamber at 20° C. for 6 days, after which time visual disease ratings were made.
as §2

Septoria tritici = assay: Test C: preventive spray on wheat seedlings, Septoria tritici (wheat leaf blotch), visual disease rating
From the text: as §1
(§3) The test suspension was sprayed to the point of run-off on wheat seedlings. The following day the seedlings were inoculated with a spore suspension of Septoria tritici (the causal agent of wheat leaf blotch) and incubated in a saturated atmosphere at 24° C. for 48 h, and then moved to a growth chamber at 20° C. for 21 days, after which time visual disease ratings were made.
as §2

[2] = test system: Puccinia recondite f. sp. tritici; assay: Test D: preventive spray on wheat seedlings, Puccinia recondite f. sp. tritici (wheat leaf rust), visual disease rating
From the text: as §1
as §3, with “Puccinia recondite f. sp. tritici;” for “Septoria tritici”, “rust)” for “blotch)”, “20°” for “24°”, “24” for “48”, “6” for “21”
as §2

[3] = test system: Erysiphe graminis f. sp. tritici; assay: Test E: preventive spray on wheat seedlings, Erysiphe graminis f. sp. tritici (wheat powdery mildew), visual disease rating
From the text: as §1
The test suspension was sprayed to the point of run-off on wheat seedlings. The following day the seedlings were inoculated with a spore dust of Erysiphe graminis f. sp. tritici, (the causal agent of wheat powdery mildew) and incubated in a growth chamber at 20° C. for 8 days, after which time visual disease ratings were made.
as §2

[4] = 100 = 100% disease control, 0 = no control relative to controls, unmarked values
[5] = 100 = 100% disease control, 0 = no control, unmarked values
[6] = values marked with asterisk (*), meaning not given

Compound | Test A disease control rating (Botrytis cinerea; [4]) | Test B disease control rating [1, 5] | Test C disease control rating (Septoria tritici; [5]) | Test D disease control rating [2, 5] | Test E disease control rating [3, 5] | Test A disease control rating (Botrytis cinerea; [6]) | Test B disease control rating [1, 6] | Test C disease control rating (Septoria tritici; [6]) | Test D disease control rating [2, 6] | Test E disease control rating [3, 6]
O=C(Nc1ccccc1-c1cnc(-n2ccc(Br)n2)c(F)c1)c1ccccc1C(F)(F)F [compound 79] | 25% | 0% | 100% | 100% | 99% |  |  |  |  | 
O=C(Nc1ccccc1-c1ccc(-n2cc(-c3ccccc3F)cn2)nc1)c1ncccc1C(F)(F)F [compound 29] | 77% | 99% | 100% | 89% | 82% |  |  |  |  | 
Cc1cc(-c2ccccc2NC(=O)c2ncccc2C(F)(F)F)cnc1-n1ccc(C(F)(F)F)n1 [compound 37] | 95% | 100% | 100% | 100% | 100% |  |  |  |  | 
Cn1cc(C(=O)Nc2ccccc2-c2ccc(-n3ccc(-c4cccc(F)c4)n3)nc2)c(C(F)F)n1 [compound 87] | 99% | 0% | 97% | 100% | 64% |  |  |  |  | 
O=C(Nc1ccccc1-c1ccc(-n2ccc(C(F)(F)F)n2)nc1)c1ncccc1C(F)(F)F [compound 26] | 88% | 90% | 100% | 99% | 100% |  |  |  |  | 
Cc1cc(-c2ccccc2NC(=O)c2ncccc2C(F)(F)F)cnc1-n1cc(Cl)cn1 [compound 64] | 98% | 60% | 100% | 100% | 96% |  |  |  |  | 
COc1ccc(-c2ccn(-c3ccc(-c4ccccc4NC(=O)c4cn(C)nc4C(F)F)cn3)n2)cc1 [compound 88] | 100% | 0% | 51% | 100% | 93% |  |  |  |  | 
O=C(Nc1ccccc1-c1cnc(-n2cc(Cl)cn2)c(F)c1)c1ccccc1C(F)(F)F [compound 78] | 28% | 0% | 100% | 100% | 97% |  |  |  |  | 
COc1ccccc1-c1ccn(-c2ccc(-c3ccccc3NC(=O)c3cn(C)nc3C(F)F)cn2)n1 [compound 98] | 67% | 0% | 75% | 100% | 48% |  |  |  |  | 
Cn1cc(C(=O)Nc2ccccc2-c2ccc(-n3ccc(Br)n3)nc2)c(C(F)F)n1 [compound 11] | 100% | 100% | 100% | 100% | 99% |  |  |  |  | 
O=C(Nc1ccccc1-c1cnc(-n2ccc(C(F)(F)F)n2)nc1)c1nccnc1Cl [compound 55] | 0% | 0% | 100% | 91% | 0% |  |  |  |  | 
Cn1cc(C(=O)Nc2ccccc2-c2cnc(-n3ccc(Cl)n3)c(F)c2)c(C(F)F)n1 [compound 73] | 96% | 100% | 100% | 100% | 100% |  |  |  |  | 
O=C(Nc1ccccc1-c1cnc(-n2ccc(-c3ccccc3)n2)c(F)c1)c1ncccc1C(F)(F)F [compound 72] | 92% | 0% | 100% | 97% | 91% |  |  |  |  | 
Cn1cc(C(=O)Nc2ccccc2-c2ccc(-n3ccc(-c4cc(F)cc(F)c4)n3)nc2)c(C(F)F)n1 [compound 89] | 75% | 0% |  | 100% | 79% |  |  |  |  | 
O=C(Nc1ccccc1-c1ccc(-n2nc(C(F)(F)F)cc2O)nc1)c1ncccc1C(F)(F)F [compound 82] |  |  |  |  |  | 31* % | 97* % | 48* % | 97* % | 0* %
Cn1cc(C(=O)Nc2ccccc2-c2ccc(-n3ccc(-c4ccccc4F)n3)nc2)c(C(F)F)n1 [compound 90] | 93% | 46% |  | 100% | 72% |  |  |  |  | 
O=C(Nc1ccccc1-c1ccc(-n2cc(-c3ccc(F)cc3)cn2)nc1)c1ncccc1C(F)(F)F [compound 30] | 33% | 82% | 91% | 89% | 69% |  |  |  |  | 
Cc1cc(-c2ccccc2NC(=O)c2ccccc2C(F)(F)F)cnc1-n1ccc(C(F)(F)F)n1 [compound 36] | 28% | 98% | 100% | 100% | 99% |  |  |  |  | 
O=C(Nc1ccccc1-c1ccc(C2=NOC(c3cc(F)cc(F)c3)C2)nc1)c1ncccc1C(F)(F)F (racemic) [compound 19] | 98% | 100% | 100% | 100% | 87% |  |  |  |  | 
O=C(Nc1ccccc1-c1ccc(-n2ccc(C(F)(F)F)n2)nn1)c1ccccc1C(F)(F)F [compound 57] | 0% | 0% | 32% | 100% | 0% |  |  |  |  | 
Cc1ccsc1C(=O)Nc1ccccc1-c1ccc(-n2ccc(C(F)(F)F)n2)nc1 [compound 93] | 0% | 97% |  | 100% | 99% |  |  |  |  | 
O=C(Nc1ccccc1-c1ccc(-n2ccc(-c3ccccc3)n2)nc1)c1ccccc1C(F)(F)F [compound 42] | 40% | 0% | 87% | 68% | 21% |  |  |  |  | 
Cc1nc(C(F)(F)F)c(C(=O)Nc2ccccc2-c2ccc(-n3ccc(C(F)(F)F)n3)nc2)s1 [compound 92] | 0% | 60% |  | 100% | 98% |  |  |  |  | 
Cc1ccsc1C(=O)Nc1ccccc1-c1cnc(-n2ccc(C(F)(F)F)n2)c(Cl)c1 [compound 95] | 0% | 100% |  | 100% | 98% |  |  |  |  | 
COc1cc(OC)cc(-c2ccn(-c3ccc(-c4ccccc4NC(=O)c4cn(C)nc4C(F)F)cn3)n2)c1 [compound 91] | 87% | 33% |  | 100% | 56% |  |  |  |  | 
Cn1cc(C(=O)Nc2ccccc2-c2ccc(-n3ccc(C(F)(F)F)n3)nc2)c(C(F)(F)F)n1 [compound 94] | 0% | 98% |  | 100% | 99% |  |  |  |  | 
O=C(Nc1ccccc1-c1cnc(-n2ccc(C(F)(F)F)n2)c(Cl)c1)c1nccnc1Cl [compound 96] | 0% | 60% |  | 99% | 96% |  |  |  |  | 
Cn1cc(C(=O)Nc2ccccc2-c2cnc(-n3ccc(C(F)(F)F)n3)c(Cl)c2)c(C(F)(F)F)n1 [compound 97] | 0% | 87% |  | 100% | 99% |  |  |  |  | 

— patent publication US9730447B2, “Fungicidal amides” (E I DU PONT DE NEMOURS AND COMPANY, priority 2013, dated 2017)
